Source: patent US11827543B2, “Method for continuous supply of superoxide-containing peracetate oxidant solution” (Clean Chemistry, Inc., priority 2014, dated 2023)
Each block holds one compound with its values, some of them ahead of it.

Columns and labels:
[1] = ORP (oxidative-reductive potential) measurement of solutions and treated water; type: physicochemical; conditions: for ORP: 29 mM, pH 7; for ORP (mV vs SHE): early flowback water, Example 19, 1.7 mmol/L oxidant
Procedure: Example 9: Hydrogen Peroxide Residual Concentration and interference. A sodium peracetate oxidant solution was produced according to the procedure in Example 4 and diluted to 2800 mg/L (28.5 mmol/L) with either distilled water, for clean water conditions, or tap water containing about 0.18 mg/L copper, which served as an activation catalyst. Some samples were spiked with 30 or 60 mg/L (0.88 or 1.76 mmol/L, respectively) hydrogen peroxide from a 1000 mg/L stock solution. […] The temperature of the samples was maintained at 25±2° C. with a heated water bath. The ORP response was monitored over time to observe the impact of adding low concentrations of hydrogen peroxide. The pH was measured using a high sodium electrode (Oakton model 35805-05) with three point calibration and automatic temperature correction. The ORP (oxidative-reductive potential) of solutions was measured using an Oakton model 35805-15 ORP probe calibrated to the standard hydrogen electrode (SHE) using Thermo/Orion ORP standard 967901.
(§1) Water parameters were measured by a variety of methods. The pH was measured using a high sodium electrode (Oakton model 35805-05) with three point calibration and automatic temperature correction. The ORP (oxidative-reductive potential) of solutions was measured using an Oakton model 35805-15 ORP probe calibrated to the standard hydrogen electrode (SHE) using Thermo/Orion ORP standard 967901. Sodium ion concentration was measured using a Cole-Parmer ion selective electrode, EW-27504-30, with two point calibration of a sodium standard solution of NaCl. Chloride ion concentration was measured using a Cole-Parmer ion selective electrode, SC-27504-08, with two point calibration of a chloride standard solution of NaCl. All measurements using HACH methods were measured using a HACH DR900 colorimeter. Calcium, magnesium and total hardness concentrations were measured using HACH method 8030. Sulfate concentration was measured using HACH method 10248. Aluminum concentration was measured using HACH method 8012. Iron concentration was measured using HACH method 10249 modified with a longer reaction time to minimize interferences from organic impurities. Total suspended solids (TSS) concentration was measured using HACH method 8006 modified for smaller volumes. Turbidity was measured using HACH method 8237. ATP (adenosine triphosphate) concentration was measured using the LuminUltra 2nd Generation metabolic ATP measurement technology with the LuminUltra Quench Gone-Organic Modified sampling method, a PhotonMaster Luminometer and LumiCalc software. Acid producing bacteria (ABP) and sulfate reducing bacteria (SRB) cell culture concentrations were measured with standard 1 mL serial dilutions using Intertek APB and SRB culture media, 1% salinity.

bacteria = test: ATP concentration (LuminUltra metabolic ATP measurement) in oxidant-treated water; type: cell-based; conditions: produced water, Example 18, 0.30 mmol/L oxidant
pH of treated water = type: physicochemical
Procedure: as §1

[2] = Chlorine dioxide stock solution concentration over time (HACH DPD method); type: physicochemical; conditions: 2800 mg/L stock solution, room temperature, 7 days
Procedure: Chlorine dioxide stock solution preparation: One AQUA-Tab 20 G chlorine dioxide tablet (Beckart Environmental, Inc.) was dissolved in 32 oz (946 mL) of distilled water in a closed polyethylene container according to the product instructions. The yellow solution was allowed to sit for at least 1 hour before use. The chlorine dioxide concentration was measured before use using the HACH DPD method no. 10126 after diluting 0.330 mL of the prepared chlorine dioxide stock solution with distilled water to 200 mL in a volumetric flask. The initial chlorine dioxide concentration of the stock solution was measured to be 2800 mg/L. The concentration decreased slowly over time at room temperature, e.g., 6.4% decrease in 7 days.

[3] = produced water, Example 18, 0.30 mmol/L oxidant

ORP (constant) ([1]; diluted, pH 10.00±0.02, 25±2 °C): about 914 mV vs SHE
Structure (SMILES): OCl [sodium hypochlorite, reference compound]

ORP [1]: over 1.1 V (SHE)
Structure (SMILES): OCl [hypochlorous acid, reference compound]

Structure (SMILES): [O][Cl+][O-] [chlorine dioxide, reference compound]
ATP (pg/mL), at 30 min CT (bacteria): 7.7 pg/mL | ATP reduction at 30 min CT (bacteria): 94.3% | ATP (pg/mL), at 15 min CT (bacteria; untreated 135): 10.3 pg/mL | ORP (mV vs SHE) ([1]; contact time 3 minutes): 646 mV vs SHE | ORP (mV vs SHE) ([1]; contact time 13 minutes): 580 mV vs SHE | ORP (mV vs SHE) ([1]; contact time 35 minutes): 496 mV vs SHE | ORP (mV vs SHE) ([1]; contact time 90 minutes): 456 mV vs SHE | ORP (mV vs SHE), maximum [1, 3]: 818 mV vs SHE | ORP after slow decrease ([1]; produced water, Example 18, 0.30 mmol/L, in the following 17 minutes): 785 mV vs SHE | pH (pH of treated water; early flowback water, Example 19, 1.7 mmol/L oxidant, contact time 3 minutes): 6.33 | pH (pH of treated water; early flowback water, Example 19, 1.7 mmol/L oxidant, contact time 13 minutes): 6.32 | pH (pH of treated water; early flowback water, Example 19, 1.7 mmol/L oxidant, contact time 35 minutes): 6.32 | pH (pH of treated water; early flowback water, Example 19, 1.7 mmol/L oxidant, contact time 90 minutes): 6.36 | pH (pH of treated water; [3]): 5.6 | decrease of concentration of stock solution [2]: 6.4%

ORP [1]: about 0.5 V (SHE)
Structure (SMILES): OO [hydrogen peroxide, reference compound]
